# pIC50: −log10 of the molar value.
# Molecular target: T1, human NaV1.3 (Homo sapiens, UniProt Q9NY46)
# T1 construct: expressed in transfected cells; host or cells: HEK293
# Assay: FRET assay (EFS, FDSS) on HEK293 cells expressing human NaV1.3 channels
# Type: cell-based
# Conditions: FRET assay, HEK293 cells expressing human NaV1.3; read-out: IC50 against Nav1.3
# Procedure: This screen was used to determine the effects of compounds on human NaV1.3, human Nav1.7, and human Nav1.5 channels, utilising electrical field stimulation (EFS) system in 96-well plate format on FDSS (Hamamatsu Photonics) platform. The change of membrane potential was monitored with FRET dye pair, oxonol (DiSBAC2(3)) and coumarin (CC2-DMPE).
# Each HEK293 cells expressing human NaV1.3 channels and HEK293 cells expressing human NaV1.5 channels were grown in T225 flasks, in a 5% CO2 humidified incubator to about 80% confluence. Media composition consisted of Dulbecco's Modified Eagle Medium (high glucose), 10% FCS, 100 units/ml Penicillin, 100 microgram/ml Streptomycin and 500 microgram/ml Geneticine.
# Protocol: • Seeded each cell lines (1×10^5 cells/well) into poly-D-lysine coated 96-well plates prior to experimentation. • Incubated at 37° C. in 5% CO2 for 24 hours. • Washed each well with assay buffer (140 mM NaCl, 4.5 mM KCl, 10 mM D-Glucose, 2 mM CaCl2, 1 mM MgCl2, 10 mM HEPES, pH 7.4 adjusted with NaOH) twice. • Added 1st loading solution containing 10 microM CC2-DMPE and 0.06% Pluronic F-127 in assay buffer. • Incubated the plate at room temperature in dark for 1 hour. • Removed 1st loading solution and added 2nd loading solution containing 15 microM DiSBAC2(3), 0.555 mM VABSC-1 and 0.004% Pluronic F-127 in assay buffer. • Placed the plate under the dark at room temperature for 25 minutes. • Added compound solutions into the assay plate. • Set the assay plate in FDSS and placed an EFS device on the plate. • Measured EFS-induced fluorescent response by FDSS.
# The data were analyzed and reported as normalized ratios of intensities measured at […]. The process of calculating these ratios was performed as follows:
# [formula] This analysis was performed using a computerized specific program designed for FDSS generated data. Fluorescence ratio values were plotted using XLfit to determine an IC50 value for each compound.
# T1 sequence (Q9NY46 whole entry): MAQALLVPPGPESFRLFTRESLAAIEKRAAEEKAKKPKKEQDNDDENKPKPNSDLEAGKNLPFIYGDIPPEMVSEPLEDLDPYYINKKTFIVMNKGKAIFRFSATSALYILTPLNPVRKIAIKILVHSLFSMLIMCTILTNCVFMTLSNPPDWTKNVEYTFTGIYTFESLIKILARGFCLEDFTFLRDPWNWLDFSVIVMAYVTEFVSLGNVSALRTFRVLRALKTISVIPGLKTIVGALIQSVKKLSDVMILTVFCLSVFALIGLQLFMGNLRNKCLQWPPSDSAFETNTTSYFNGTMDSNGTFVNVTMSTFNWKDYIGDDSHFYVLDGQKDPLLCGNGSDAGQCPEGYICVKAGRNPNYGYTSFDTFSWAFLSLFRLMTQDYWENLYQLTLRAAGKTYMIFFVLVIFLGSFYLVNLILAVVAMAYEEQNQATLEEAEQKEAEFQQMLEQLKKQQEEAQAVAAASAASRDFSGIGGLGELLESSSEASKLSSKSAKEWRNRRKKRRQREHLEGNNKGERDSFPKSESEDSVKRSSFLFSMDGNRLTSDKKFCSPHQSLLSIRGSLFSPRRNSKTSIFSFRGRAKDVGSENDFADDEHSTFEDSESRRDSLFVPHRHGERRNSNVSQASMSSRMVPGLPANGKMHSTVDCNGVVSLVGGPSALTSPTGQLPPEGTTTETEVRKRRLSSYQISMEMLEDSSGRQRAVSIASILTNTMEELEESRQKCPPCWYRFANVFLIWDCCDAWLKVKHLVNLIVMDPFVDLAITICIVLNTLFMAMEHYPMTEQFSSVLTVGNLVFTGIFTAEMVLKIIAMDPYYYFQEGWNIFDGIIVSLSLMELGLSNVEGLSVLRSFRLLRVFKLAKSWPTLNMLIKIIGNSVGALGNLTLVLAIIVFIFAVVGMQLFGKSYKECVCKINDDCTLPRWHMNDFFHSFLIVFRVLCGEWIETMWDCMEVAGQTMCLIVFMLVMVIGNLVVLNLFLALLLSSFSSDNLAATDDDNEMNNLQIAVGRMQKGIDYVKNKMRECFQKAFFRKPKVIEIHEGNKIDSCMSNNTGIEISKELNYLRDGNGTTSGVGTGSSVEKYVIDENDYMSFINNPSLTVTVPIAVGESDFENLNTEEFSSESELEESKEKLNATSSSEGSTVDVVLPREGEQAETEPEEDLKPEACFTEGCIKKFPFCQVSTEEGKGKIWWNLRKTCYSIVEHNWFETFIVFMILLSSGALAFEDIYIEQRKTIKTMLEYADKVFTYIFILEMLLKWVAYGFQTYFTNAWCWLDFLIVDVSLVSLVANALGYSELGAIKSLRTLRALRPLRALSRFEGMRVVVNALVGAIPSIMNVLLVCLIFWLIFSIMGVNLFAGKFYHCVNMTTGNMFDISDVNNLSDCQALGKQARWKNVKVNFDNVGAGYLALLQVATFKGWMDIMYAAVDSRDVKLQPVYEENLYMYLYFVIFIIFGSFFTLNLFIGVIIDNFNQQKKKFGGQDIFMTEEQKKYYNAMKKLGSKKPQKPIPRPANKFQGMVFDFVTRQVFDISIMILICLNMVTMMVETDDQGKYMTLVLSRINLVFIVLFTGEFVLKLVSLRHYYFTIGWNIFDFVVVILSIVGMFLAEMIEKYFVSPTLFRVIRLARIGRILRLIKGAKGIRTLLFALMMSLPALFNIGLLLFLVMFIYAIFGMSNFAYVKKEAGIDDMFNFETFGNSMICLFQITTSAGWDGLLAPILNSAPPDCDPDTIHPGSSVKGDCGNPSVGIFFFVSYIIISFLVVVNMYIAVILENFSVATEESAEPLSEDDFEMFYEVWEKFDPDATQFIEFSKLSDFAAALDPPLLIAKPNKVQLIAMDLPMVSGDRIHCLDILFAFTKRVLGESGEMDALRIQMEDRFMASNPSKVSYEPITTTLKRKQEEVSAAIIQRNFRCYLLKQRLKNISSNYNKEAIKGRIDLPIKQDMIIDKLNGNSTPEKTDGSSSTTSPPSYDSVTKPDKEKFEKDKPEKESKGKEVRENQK
row,SMILES,pIC50
1,"CC(C)COc1cc(N2CCN(C(=O)OCc3ccccc3)CC2)ncn1 [Example 53, benzyl 4-(6-isobutoxypyrimidin-4-yl)piperazine-1-carboxylate]",> 5.52
2,"O=C(NCC(=O)N1CCN(c2cc(OC3CCC3)ncn2)CC1)c1ccccc1 [Example 85, N-(2-(4-(6-cyclobutoxypyrimidin-4-yl)piperazin-1-yl)-2-oxoethyl)benzamide]",> 5.52
3,"CC(C)COc1cc(N2CCN(C(=O)c3cnc4ccccc4n3)CC2)ncn1 [Example 34, (4-(6-isobutoxypyrimidin-4-yl)piperazin-1-yl)(quinoxalin-2-yl)methanone]",> 5.52
4,"CC(C)COc1cc(N2CCN(C(=O)c3cnn(-c4ccccc4)c3)CC2)ncn1 [Example 215, (4-(6-isobutoxypyrimidin-4-yl)piperazin-1-yl)(1-phenyl-1H-pyrazol-4-yl)methanone]",> 5.52
5,"O=C(Cc1noc2ccccc12)N1CCN(c2cc(OC3CCC3)ncn2)CC1 [Example 111, 2-(benzo[d]isoxazol-3-yl)-1-(4-(6-cyclobutoxypyrimidin-4-yl)piperazin-1-yl)ethanone]",> 5.52
6,"COc1cccc(C(=O)NCC(=O)N2CCN(c3cc(OCC(C)C)ncn3)CC2)n1 [Example 73, N-(2-(4-(6-isobutoxypyrimidin-4-yl)piperazin-1-yl)-2-oxoethyl)-6-methoxypicolinamide]",> 5.52
7,"CC(C)COc1cc(N2CCN(C(=O)C(O)Cc3ccccc3)CC2)ncn1 (stereo in doubt) [Example 5, (R)-2-hydroxy-1-(4-(6-isobutoxypyrimidin-4-yl)piperazin-1-yl)-3-phenylpropan-1-one]",> 5.52
8,"CC(C)COc1cc(N2CCN(C(=O)COCc3ccccc3)CC2)ncn1 [Example 106, 2-(benzyloxy)-1-(4-(6-isobutoxypyrimidin-4-yl)piperazin-1-yl)ethanone]",> 5.52
9,"CC(C)COc1cc(N2CCN(C(=O)COc3cncc(Cl)c3)CC2)ncn1 [Example 144, 2-((5-chloropyridin-3-yl)oxy)-1-(4-(6-isobutoxypyrimidin-4-yl)piperazin-1-yl)ethanone]",> 5.52
10,Cc1c(C(=O)N2CCN(c3cc(OCC(C)C)ncn3)CC2)cnn1-c1ccccc1 [Example 135],> 5.52
11,"O=C(Cn1nc2ccccc2n1)N1CCN(c2cc(OC3CCC3)ncn2)CC1 [Example 220, 2-(2H-benzo[d][1,2,3]triazol-2-yl)-1-(4-(6-cyclobutoxypyrimidin-4-yl)piperazin-1-yl)ethanone]",> 5.52
12,"CC(C)COc1cc(N2CCN(C(=O)C(C)Oc3ccc(F)cc3)CC2)ncn1 (stereo not drawn) [Example 48, 2-(4-fluorophenoxy)-1-(4-(6-isobutoxypyrimidin-4-yl)piperazin-1-yl)propan-1-one]",> 5.52
13,"CC(C)COc1cc(N2CCN(C(=O)c3cn(-c4ccccc4)nn3)CC2)ncn1 [Example 206, (4-(6-isobutoxypyrimidin-4-yl)piperazin-1-yl)(1-phenhyl-1H-1,2,3-triazol-4-yl)methanone]",> 5.52
14,"Cc1c(C(=O)N2CCN(c3cc(OCC(C)C)ncn3)CC2)nnn1-c1ccccc1 [Example 136, (4-(6-isobutoxpyrimidin-4-yl)piperazin-1-yl)(5-methyl-1-phenyl-1H-1,2,3-triazol-4-yl)methanone]",> 5.52
15,"Cc1c(C(=O)N2CCN(c3cc(OC4CCC4)ncn3)CC2)nnn1-c1ccc(F)cc1 [Example 204, (4-(6-cyclobutoxypyrimidin-4-yl)piperazin-1-yl)(1-(4-fluorophenyl)-5-methyl-1H-1,2,3-triazol-4-yl)methanone]",> 5.52
16,"CC(C)COc1cc(N2CCN(C(=O)COc3cccc4ccncc34)CC2)ncn1 [Example 128, 1-(4-(6-isobutoxypyrimidin-4-yl)piperazin-1-yl)-2-(isoquinolin-8-yloxy)ethanone]",> 5.52
17,"CC(C)COc1cc(N2CCN(C(=O)COc3cccc4ncccc34)CC2)ncn1 [Example 78, 1-(4-(6-isobutoxypyrimidin-4-yl)piperazin-1-yl)-2-(quinolin-5-yloxy)ethanone]",> 5.52
18,"CC(C)COc1cc(N2CCN(C(=O)c3nn(C)c4ccc(F)cc34)CC2)ncn1 [Example 209, (5-fluoro-1-methyl-1H-indazol-3-yl)(4-(6-isobutoxypyrimidin-4-yl)piperazin-1-yl)methanone]",> 5.52
19,"Cc1c(C(=O)N2CCN(c3cc(OC(C)C)ncn3)CC2)nnn1-c1ccc(F)cc1 [Example 203, (1-(4-fluorophenyl)-5-methyl-1H-1,2,3-triazol-4-yl)(4-(6-isopropoxypyrimidin-4-yl)piperazin-1-yl)methanone]",> 5.52
20,"CC(C)COc1cc(N2CCN(C(=O)c3cccc4[nH]ccc34)CC2)ncn1 [Example 9, (1H-indol-4-yl)(4-(6-isobutoxypyrimidin-4-yl)piperazin-1-yl)methanone]",> 5.52
21,"CC(C)COc1cc(N2CCN(C(=O)c3cccc(OCC(F)(F)F)n3)CC2)ncn1 [Example 232, (4-(6-isobutoxypyrimidin-4-yl)piperazin-1-yl)(6-(2,2,2-trifluoroethoxy)pyridin-2-yl)methanone]",> 5.52
22,CC(C)COc1cc(N2CCN(C(=O)c3ccc(-c4cnco4)cc3)CC2)ncn1 [Example 92],> 5.52
23,"CC(C)COc1cc(N2CCN(C(=O)Cc3noc4ccccc34)CC2)ncn1 [Example 58, 2-(benzo[d]isoxazol-3-yl)-1-(4-(6-isobutoxypyrimidin-4-yl)piperazin-1-yl)ethanone]",> 5.52
24,"CC(C)Oc1cc(N2CCN(C(=O)c3cc(-c4ccccc4)nn3C)CC2)ncn1 [Example 164, (4-(6-isopropoxypyrimidin-4-yl)piperazin-1-yl)(1-methyl-3-phenyl-1H-pyrazol-5-yl)methanone]",> 5.52
25,"CCn1nc(C(=O)N2CCN(c3cc(OCC(C)C)ncn3)CC2)cc1C(F)(F)F [Example 228, (1-ethyl-5-(trifluoromethyl)-1H-pyrazol-3-yl)(4-(6-isobutoxypyrimidin-4-yl)piperazin-1-yl)methanone]",> 5.52
26,"COCCn1c(C(=O)N2CCN(c3cc(OCC(C)C)ncn3)CC2)cc2ccccc21 [Example 62, (4-(6-isobutoxypyrimidin-4-yl)piperazin-1-yl)(1-(2-methoxyethyl)-1H-indol-2-yl)methanone]",> 5.52
27,"CC(C)COc1cc(N2CCN(C(=O)c3csc(-c4ccccn4)n3)CC2)ncn1 [Example 191, (4-(6-isobutoxypyrimidin-4-yl)piperazin-1-yl)(2-(pyridin-2-yl)thiazol-4-yl)methanone]",> 5.52
28,"COc1cc(C(=O)N2CCN(c3cc(OCC(F)(F)F)ncn3)CC2)nc2ccccc12 [Example 63, (4-methoxyquinolin-2-yl)(4-(6-(2,2,2-trifluoroethoxy)pyrimidin-4-yl)piperazin-1-yl)methanone]",> 5.52
29,"Cc1c(C(=O)N2CCN(c3cc(OCC(F)(F)F)ncn3)CC2)nnn1-c1ccc(F)cc1 [Example 205, (1-(4-fluorophenyl)-5-methyl-1H-1,2,3-triazol-4-yl)(4-(6-(2,2,2-trifluoroethoxy)pyrimidin-4-yl)piperazin-1-yl)methanone]",> 5.52
30,"CC(C)COc1cc(N2CCN(C(=O)c3ccc(-n4cccn4)cc3)CC2)ncn1 [Example 93, (4-(1H-pyrazol-1-yl)phenyl)(4-(6-isobutoxypyrimidin-4-yl)piperazin-1-yl)methanone]",> 5.52

# From patent US8999974B2, “Acyl piperazine derivatives as TTX-S blockers” (Raqualia Pharma Inc., priority 2010, dated 2015)
